Calls of active or inactive are those of the source. No cut-off for these calls is given here. Bridge positions count the residues as written; N and C are the ends. Square brackets hold non-standard residues; d marks the D form. Peptide text beside a SMILES is read from it. ξ: configuration not given here. ξQ = NC(=O)CCC(N)C(=O)O; ξNle = CCCCC(N)C(=O)O; Aib = CC(C)(N)C(=O)O
Legend:
Leishmania infantum [1] = assay: Antileishmanial activity against Leishmania infantum MCAN/ES/89/IPZ229/1/89 promastigotes assessed as induction of cell death at 25 uM after 24 hrs by propidium iodide staining based flow cytometry; assay type: functional
Trypanothione reductase [2] = molecular target: T1, Trypanothione reductase (Leishmania infantum, UniProt A4HSF7); assay: Inhibition of recombinant Leishmania infantum TryR preincubated for 10 mins followed by T[S]2 substrate addition and measured after 1 hr in presence of NADPH
T1 sequence (A4HSF7 whole entry): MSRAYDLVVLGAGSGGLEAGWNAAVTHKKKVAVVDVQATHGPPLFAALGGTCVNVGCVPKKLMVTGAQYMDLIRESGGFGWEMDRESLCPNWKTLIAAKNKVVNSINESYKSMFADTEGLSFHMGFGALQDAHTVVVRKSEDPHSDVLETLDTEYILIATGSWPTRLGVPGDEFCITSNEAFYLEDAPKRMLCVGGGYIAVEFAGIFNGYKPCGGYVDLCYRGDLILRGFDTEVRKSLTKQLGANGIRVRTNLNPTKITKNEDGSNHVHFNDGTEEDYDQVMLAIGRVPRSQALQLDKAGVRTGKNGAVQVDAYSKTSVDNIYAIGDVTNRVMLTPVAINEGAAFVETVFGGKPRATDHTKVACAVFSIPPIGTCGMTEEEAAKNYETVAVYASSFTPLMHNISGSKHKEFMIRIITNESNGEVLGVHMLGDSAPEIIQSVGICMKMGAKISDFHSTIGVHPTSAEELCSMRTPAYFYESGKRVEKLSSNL

Leishmania infantum [3] = assay: Antileishmanial activity against Leishmania infantum axenic amastigotes assessed as induction of cell death at 25 uM after 24 hrs by propidium iodide staining based flow cytometry; assay type: functional
Trypanothione reductase [4] = molecular target: T1, Trypanothione reductase; assay: Inhibition of recombinant His/FLAG-tagged Leishmania infantum TryR dimerization assessed as dimer disruption after 1 hr by ELISA
Leishmania infantum [5] = assay: Antileishmanial activity against Leishmania infantum MCAN/ES/89/IPZ229/1/89 promastigotes assessed as induction of cell death after 24 hrs by propidium iodide staining based flow cytometry; assay type: functional; settings: MCAN/ES/89/IPZ229/1/89, 24 h
Leishmania infantum [6] = assay: Antileishmanial activity against Leishmania infantum axenic amastigotes assessed as induction of cell death after 24 hrs by propidium iodide staining based flow cytometry; assay type: functional
[7] = Cytotoxicity against human THP1 cells assessed as induction of cell death after 24 hrs by propidium iodide staining based flow cytometry; settings: THP-1 cells, read-out: LC50

CCCCC(NC(=O)[C@H](CCCCN)NC(=O)[C@H](CCCCN)NC(=O)[C@H](CO)NC(=O)[C@@H](NC(=O)CNC(=O)[C@H](CCC(=O)O)NC(=O)[C@H](CO)NC(=O)[C@H](CCC(N)=O)NC(=O)[C@@H](NC(=O)[C@@H](NC(=O)[C@H](CCCCN)NC(=O)[C@@H]1CCCN1C(C)=O)[C@@H](C)CC)[C@@H](C)CC)[C@@H](C)CC)C(N)=O (stereo partly specified) (Ac-PKIIQSEGISKK[ξNle]-NH2)
Activity (Leishmania infantum [1]): inactive
IC50 (Trypanothione reductase [2]): > 75 µM
Activity (Leishmania infantum [3]): inactive

CCCCC(NC(=O)[C@H](CCCCN)NC(=O)[C@@H]1CCCCNC(=O)CC[C@H](NC(=O)[C@H](CO)NC(=O)[C@H](CCC(N)=O)NC(=O)[C@@H](NC(=O)[C@@H](NC(=O)[C@H](CCCCN)NC(=O)[C@@H]2CCCN2C(C)=O)[C@@H](C)CC)[C@@H](C)CC)C(=O)NCC(=O)N[C@@H]([C@@H](C)CC)C(=O)N[C@@H](CO)C(=O)N1)C(N)=O (stereo partly specified) (Ac-PKIIQSEGISKK[ξNle]-NH2; lactam 7-11)
Activity (Leishmania infantum [1]): inactive
IC50 (Trypanothione reductase [2]): > 75 µM
Activity (Leishmania infantum [3]): inactive
IC50 (Trypanothione reductase [4]): > 75 µM

CCCCC(NC(=O)[C@H](CCCCN)NC(=O)C(CCCC)NC(=O)[C@H](CO)NC(=O)[C@@H](NC(=O)CNC(=O)[C@@H]1CCCCNC(=O)CC[C@H](NC(=O)[C@H](CCCCN)NC(=O)[C@@H]2CCCN2C(=O)[C@H](CCCNC(=N)N)NC(=O)[C@H](CCCNC(=N)N)NC(=O)[C@H](CCCNC(=N)N)NC(=O)[C@H](CCCNC(=N)N)NC(=O)[C@H](CCCNC(=N)N)NC(=O)[C@H](CCCNC(=N)N)NC(=O)[C@H](CCCNC(=N)N)NC(=O)[C@H](CCCNC(=N)N)NC(=O)[C@H](CCCNC(=N)N)NC(C)=O)C(=O)N[C@@H]([C@@H](C)CC)C(=O)N[C@@H](CCC(N)=O)C(=O)N[C@@H](CO)C(=O)N1)[C@@H](C)CC)C(N)=O (stereo partly specified) (Ac-RRRRRRRRRPKEIQSKGIS[ξNle]K[ξNle]-NH2; lactam 12-16)
LC50 (Leishmania infantum [5]): 3.5 µM
LC50 (Leishmania infantum [6]): 2.8 µM
CC50 at 24 h [7]: 2.5 µM

CCCCC(NC(=O)[C@H](CCCCN)NC(=O)C(CCCC)NC(=O)[C@H](CO)NC(=O)[C@@H](NC(=O)CNC(=O)[C@@H](NC(=O)[C@H](CO)NC(=O)[C@H](CCC(N)=O)NC(=O)[C@@H](NC(=O)[C@@H](NC(=O)[C@H](CCCCN)NC(=O)[C@@H]1CCCN1C(=O)[C@H](CCCNC(=N)N)NC(=O)[C@H](CCCNC(=N)N)NC(=O)[C@H](CCCNC(=N)N)NC(=O)[C@H](CCCNC(=N)N)NC(=O)[C@H](CCCNC(=N)N)NC(=O)[C@H](CCCNC(=N)N)NC(=O)[C@H](CCCNC(=N)N)NC(=O)[C@H](CCCNC(=N)N)NC(=O)[C@H](CCCNC(=N)N)NC(C)=O)[C@@H](C)CC)[C@@H](C)CC)C(C)C)[C@@H](C)CC)C(N)=O (stereo partly specified) (Ac-RRRRRRRRRPKIIQSVGIS[ξNle]K[ξNle]-NH2)
LC50 (Leishmania infantum [5]): 4.6 µM
LC50 (Leishmania infantum [6]): 3.5 µM
CC50 at 24 h [7]: 1.7 µM

CCCCC(NC(=O)[C@H](CCCCN)NC(=O)C(CCCC)NC(=O)[C@H](CO)NC(=O)[C@@H](NC(=O)CNC(=O)[C@@H]1CCCCNC(=O)CC[C@H](NC(=O)[C@H](CCCCN)NC(=O)[C@@H]2CCCN2C(=O)C(C)(C)NC(=O)[C@H](CCCNC(=N)N)NC(=O)[C@H](CCCNC(=N)N)NC(=O)C(C)(C)NC(=O)[C@H](CCCNC(=N)N)NC(=O)[C@H](CCCNC(=N)N)NC(=O)C(C)(C)NC(=O)[C@H](CCCNC(=N)N)NC(=O)[C@H](CCCNC(=N)N)NC(C)=O)C(=O)N[C@@H]([C@@H](C)CC)C(=O)NC(CCC(N)=O)C(=O)N[C@@H](CO)C(=O)N1)[C@@H](C)CC)C(N)=O (stereo partly specified) (Ac-RR[Aib]RR[Aib]RR[Aib]PKEI[ξQ]SKGIS[ξNle]K[ξNle]-NH2; lactam 12-16)
LC50 (Leishmania infantum [5]): 6.4 µM
LC50 (Leishmania infantum [6]): 10.4 µM
CC50 at 24 h [7]: 5.2 µM

CCCCCCCCCCCCCCCCCCOCC(COP(=O)([O-])OCC[N+](C)(C)C)OC (stereo unspecified) [EDELFOSINE]
LC50 (Leishmania infantum [5]): 9 µM
LC50 (Leishmania infantum [6]): 0.6 µM
CC50 at 24 h [7]: 1 µM

CCCCCCCCCCCCCCCCOP(=O)([O-])OCC[N+](C)(C)C [MILTEFOSINE]
LC50 (Leishmania infantum [5]): 47.6 µM
LC50 (Leishmania infantum [6]): 2 µM
CC50 at 24 h [7]: 19 µM

Ac-PKEIQSKGI-NH2
Activity (Leishmania infantum [1]): inactive
IC50 (Trypanothione reductase [2]): > 75 µM
Activity (Leishmania infantum [3]): inactive

Ac-PKIEQSVKI-NH2
Activity (Leishmania infantum [1]): inactive
IC50 (Trypanothione reductase [2]): 47.4 µM
Activity (Leishmania infantum [3]): inactive

Ac-RRRRRRRRRKMGISSMVQPKII-NH2
LC50 (Leishmania infantum [5]): > 25 µM
LC50 (Leishmania infantum [6]): > 25 µM
CC50 at 24 h [7]: > 25 µM
